# Measured values as given in PMC6941823, “A dispensable paralog of succinate dehydrogenase subunit C mediates standing resistance towards a subclass of SDHI fungicides in Zymoseptoria tritici” (PLoS Pathogens, 2019).
# How the values were obtained:
# [1] = molecular target: SQR (SDHC) of D024 SDHC3 KO mitochondria (Zymoseptoria tritici, UniProt F9X9V6+F9XH52+O42772); experiment: Succinate-quinone (SQR) SDHI sensitivity assay on purified mitochondria, 06STD024 SDHC3 KO; format: biochemical
# Procedure, shortened: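 Mitochondria purified from each strain were used for succinate:ubiquinone/DCPIP reductase assays, with suspensions adjusted to similar initial velocity (1 OD595nm hour^-1). Inhibitor was tested at 0.047 nM–50 μM in 4x steps (11 concentrations plus DMSO). IC50 came from non-linear fits of absorbance slopes (OD/min) against log concentration.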
# [2] = system: Zymoseptoria tritici on wheat variety Riband; experiment: In planta fungicide dose response; format: in vivo; settings: for In planta EC50: application one day before infection
# Protocol: The influence of the ZtSDHC3-driven SHA-SDHI resistance for the control of Z. tritici during wheat infection was assessed with a small range of commercial SDHIs (Fig 4C and 4D). In planta SDHIs sensitivity assays were performed with the 06STD024 isolate and its ZtSDHC1 or ZtSDHC3 KO mutants. A control strain (705) devoid of the ZtSDHC3 gene but more aggressive than IPO323 on wheat variety Riband was also included for comparison (Fig 4C and 4D).
# Wheat (Triticum aestivum) variety Riband was grown in pots (d = 6.5cm), at a density of 4 plants per pot and treated with the growth regulator CCC (Chlorcholinchlorid; Chlormequat; 5 ml / pot, 0.4% solution) 4 days after sowing. Wheat plantlets were maintained in a climatic room at 18°C, 60% humidity and under a 12h light regime (high intensity). Fungicide applications were performed on 14 days old plantlets for which leaf 2 is the fully expanded target leaf. Fungicide treatments were performed using a custom-made track sprayer adjusted at 200L.ha^-1 (Nozzle: Lechler, orange LU90-01). […] Z. tritici infections were performed using a Devilbis airbrush (spray of about 150ml.m^-2) one day after fungicide application and using an inoculum grown on V8-agar adjusted to 1.8.10^6 spores.ml^-1 in 0.05% Tween20 in MQ water. Inoculated plants were initially incubated for 72h under reduced light conditions and high humidity using towel-covered Plexiglas hoods in a climatic chamber set to 21°C/19°C day/night alternations, 80% humidity and a 14h light regime. The Plexiglas hoods were then removed until evaluation. Plants were fertilized once per week and disease evaluation performed based on disease coverage on the second leaf approximately 16–19 days after infection, once untreated plants reached 75–90% disease coverage. Each fungicide was tested at several rates to produce dose responses. There were 3 pots (4 plants each) per fungicide rate and isolate, the whole experiment was repeated 4 times. In planta EC50 were calculated using the software GraphPad Prism v6.08.
# SQR (SDHC) of D024 SDHC3 KO mitochondria, sequence (F9XH52 44-187): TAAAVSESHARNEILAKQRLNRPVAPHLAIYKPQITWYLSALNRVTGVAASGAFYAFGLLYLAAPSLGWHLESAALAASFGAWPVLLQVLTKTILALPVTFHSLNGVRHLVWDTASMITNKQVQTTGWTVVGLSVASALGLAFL
# SQR (SDHC) of D024 SDHC3 KO mitochondria, sequence (O42772 19-297): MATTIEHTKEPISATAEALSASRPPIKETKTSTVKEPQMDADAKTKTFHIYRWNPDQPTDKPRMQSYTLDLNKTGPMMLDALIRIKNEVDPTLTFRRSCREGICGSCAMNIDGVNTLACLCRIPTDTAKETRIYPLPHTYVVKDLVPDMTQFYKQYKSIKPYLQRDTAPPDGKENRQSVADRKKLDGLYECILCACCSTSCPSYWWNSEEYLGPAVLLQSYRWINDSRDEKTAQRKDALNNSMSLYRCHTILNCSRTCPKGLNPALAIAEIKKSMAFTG
# SQR (SDHC) of D024 SDHC3 KO mitochondria, sequence (F9X9V6 1-193): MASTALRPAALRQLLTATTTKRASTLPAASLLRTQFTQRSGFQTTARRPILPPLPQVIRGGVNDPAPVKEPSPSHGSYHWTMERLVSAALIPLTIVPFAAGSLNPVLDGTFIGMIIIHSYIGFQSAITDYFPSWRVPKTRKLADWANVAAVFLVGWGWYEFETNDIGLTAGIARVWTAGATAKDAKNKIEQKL
# SQR (SDHC) of D024 SDHC3 KO mitochondria, sequence (F9WWR1 29-643 partner): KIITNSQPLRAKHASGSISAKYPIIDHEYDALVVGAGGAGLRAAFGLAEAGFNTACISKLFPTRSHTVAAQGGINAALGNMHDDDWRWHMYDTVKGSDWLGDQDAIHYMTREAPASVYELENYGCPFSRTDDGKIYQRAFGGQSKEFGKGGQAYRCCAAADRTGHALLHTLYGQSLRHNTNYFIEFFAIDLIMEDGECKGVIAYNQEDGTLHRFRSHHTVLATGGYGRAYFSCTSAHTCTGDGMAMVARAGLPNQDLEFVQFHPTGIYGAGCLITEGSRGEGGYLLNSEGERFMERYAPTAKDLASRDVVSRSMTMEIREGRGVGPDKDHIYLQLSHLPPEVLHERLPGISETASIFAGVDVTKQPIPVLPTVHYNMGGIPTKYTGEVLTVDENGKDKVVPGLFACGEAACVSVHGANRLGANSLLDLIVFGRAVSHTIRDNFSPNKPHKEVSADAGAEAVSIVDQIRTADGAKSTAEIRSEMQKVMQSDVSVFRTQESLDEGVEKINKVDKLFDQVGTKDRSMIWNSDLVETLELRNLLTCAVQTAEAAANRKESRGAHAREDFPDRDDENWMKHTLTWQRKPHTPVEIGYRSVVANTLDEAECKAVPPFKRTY
smiles,measurement,setting,value
CON(C(=O)c1cn(C)nc1C(F)F)[C@@H](C)Cc1c(Cl)cc(Cl)cc1Cl [Pydiflumetofen],"RF (resistance factor), D024 SDHC3 KO (SDHC)",[1]; IC50 ratio compared to IPO323 values,1.1
same,IC50,"[1]; mitochondria of 06STD024 ZtSDHC3 deletion mutant, mean of three ± SD",0.3 ± 0.07 nM
same,In planta EC50,[2]; 06STD024 ZtSDHC1 KO on wheat Riband,2.85 g.ha^-1
same,In planta EC50,[2]; 06STD024 ZtSDHC3 KO mutant on wheat Riband,0.053 g.ha^-1
same,In planta EC50,[2]; WT isolate 06STD024 on wheat Riband,1.31 g.ha^-1
same,In planta sensitivity difference compared to the ZtSDHC3 KO mutant,[2]; WT isolate 06STD024 vs 06STD024 ZtSDHC3 KO,25 fold
